Earlier results, collected in article PMC9306982 (Journal of Food and Drug Analysis, 2019).
One block for each compound: values may come before it.

Tests used:
[1] = system: potassium oxonate-treated rat; details: oral administration
xanthine oxidase = details: for inhibitory activity against xanthine oxidase (in words): isolates from aerial part of Hyptis rhomboids
[2] = compared with caffeoylquinic acids

Compound: COC(=O)C1(O)CC(O)C(OC(=O)C=Cc2ccc(O)c(O)c2)C(OC(=O)C=Cc2ccc(O)c(O)c2)C1 (centres unmarked) [methyl 4,5-dicaffeoylquinate]
hypouricemic effect (in words) [1]: good

xanthine oxidase inhibitory activity (in words) (xanthine oxidase): moderate
bioavailability (in words) [2]: better
Compound: O=C(O)/C=C/c1ccc(O)c(O)c1 [Compound 11, caffeic acid]

inhibitory activity against xanthine oxidase (in words) (xanthine oxidase): good
Compound: O=C(/C=C/c1ccc(O)c(O)c1)O/C=C\c1ccc(O)c(O)c1 [netpetoidin B]

inhibitory activity against xanthine oxidase (in words) (xanthine oxidase): good
Compound: epihyprhombin B
